Experimental data taken from PubChem BioAssay AID720715 (Broad Institute, 2013).
Records with an inconclusive call do not appear. The source made the active and inactive calls. The rule behind the calls is not given here.

Test system: not listed separately
Assay: HEK293 cell cytotoxicity, dose response, cytotoxicity control, plate reader, dry powder, set 2 (AID 720715)
Conditions: HEK293 cytotoxicity, plate reader; at 12 µM (top of the series)

SMILES	activity change, negative = cytotoxicity
O=C(c1nnsc1S(=O)c1ccc(Cl)cc1)N1CCOCC1 (stereo unspecified)	0.296% (inactive)

Same assay, conditions: HEK293 cytotoxicity, plate reader; at 26 µM (top of the series)

SMILES	activity change, negative = cytotoxicity
Cc1cc2c(cc(C(=O)N3CCC(C(=O)NC4CCCC4)CC3)n2Cc2c(F)cccc2Cl)o1	-24.5% (inactive)
CCCOc1ccccc1C1CC(=O)Nc2cc3c(cc21)OCO3 (stereo unspecified)	-19.2% (inactive)
Cc1cc(N2CCCC2=O)cc(C)c1S(=O)(=O)NCCOc1ccc(C(C)(C)C)cc1	57.1% (inactive)
COc1ccccc1N1CCN(c2ncc(C(=O)N3CCN(c4cccc(Cl)c4)CC3)c3ccccc23)CC1	-7.71% (inactive)
Nc1nonc1C(=O)NCCNCc1cc(Br)ccc1OCc1ccc(F)cc1	-59.1% (inactive)
CC(=O)N1CCN(C(=O)CCc2cc(C(C)(C)C)c(O)c(C(C)(C)C)c2)CC1	-13.7% (inactive)
CC(C)[C@H](NC(=O)OC(C)(C)C)c1nnc(S(=O)(=O)Cc2c(F)cccc2Cl)o1	-61.3% (inactive)
O=c1c2ccccc2nc2n1C(CSCc1ccc(Cl)cc1Cl)CS2 (stereo unspecified)	-9.98% (inactive)
Fc1ccc(-n2nnnc2-c2cnc(-c3cccs3)nc2C(F)(F)F)cc1	-31.8% (inactive)
Cc1ccc2cc(CN(CC3CCCO3)C(=O)NC3CCCCC3)c(=O)[nH]c2c1C (stereo unspecified)	5.24% (inactive)
COc1ccc(NC(=O)c2nc(S(=O)(=O)Cc3cccc(C)c3)ncc2Cl)c(OC)c1	-19.6% (inactive)
COc1cc2ncnc(N[C@H](C)c3ccccc3)c2cc1OC	70.1% (inactive)
CCOC(=O)C1(Cc2ccc(Cl)cc2)CCN(C(C)Cc2ccc(O)c(OC)c2)CC1 (stereo unspecified)	-31.7% (inactive)
CCCc1nnc(NC(=O)c2nc(S(=O)(=O)Cc3ccc(C)cc3)ncc2Cl)s1	-2.77% (inactive)
CN(CC(=O)Nc1cccc(S(=O)(=O)N2CCOCC2)c1)CC(=O)Nc1ccc(Cl)c(C(F)(F)F)c1	-50% (inactive)
CC(=O)Nc1cccc(NC(=O)CSc2ncc(-c3ccc(Cl)cc3)n2Cc2ccco2)c1	-4.47% (inactive)
COc1ccc(NS(=O)(=O)c2ccc(C(=O)N3CCCCCC3)cc2)cc1	-33.4% (inactive)

Test system: HEK293 cytotoxicity, plate reader
Assay: as above
Conditions: not given

SMILES	AC50 [µM]
CC(C)(C)NC(=O)CSc1nc2ccc(NC(=O)CSc3nnnn3Cc3ccccc3)cc2s1	15.9
CN(C(=O)COc1ccccc1C(=O)NCCOc1ccccc1)c1ccccc1	18.1
CCOC(=O)C1CCN(C(=O)c2ccc(OCC(=O)Nc3cccc(C(F)(F)F)c3)c(OC)c2)CC1	5.01
COc1ccc(Nc2nc(N3CCCCC3)c3ccccc3n2)cc1	23.8
CCOC(=O)c1ccc(NC(=O)Cn2ncc(Cl)c(Cl)c2=O)cc1	15.1
CN(C)c1nc(-c2ccccn2)nnc1-c1ccccc1	5.55
O=C1CSc2ccc(C(=O)Nc3cccc(S(=O)(=O)Nc4ccc(Br)cc4)c3)cc2N1	19.3
COc1cc(CN2CCc3ccccc3C2)ccc1O	14.7
